The numbers were not newly measured in patent US20230142073A1 (priority 2020, published 2023), which cites them from elsewhere.

Like-named read-outs stand apart in the source and are kept apart here.

Series [1] concerns SARS-CoV-2 infected patients presenting with Severe Acute Respiratory Distress Syndrome (SARDS). Conditions: 10 ppm NO inhaled; baseline 102.
Series [2] has as its system human patients with a coronavirus (SARS-CoV-2) infection.
The test system of series [3] is Sars-Cov-2 ARDS patients. As to conditions: iv 2 μg/kg/min; in the following 6 hours; 19 patients; baseline 79; p-value=0.001.
Series [4] deals with person with a SARS-CoV-2 infection and Severe Acute Respiratory Distress Syndrome (SARDS). Conditions: iv 4 μg/kg/min; for PaO2: baseline 63; for PaO2/FiO2: baseline 70.
Series [5] has as its system SARS-CoV-2 infected patients, exhibiting Acute Respiratory Distress Syndrome (ARDS). As to conditions: iv 10 μg/kg/min, mean maintenance 1.65 μg/kg/min.
[6] abbreviates: 10 patients, iv 4 then 12 μg/kg/min.
[7] abbreviates: 1 hour after almitrine infusion.
Where [8] appears, read: 2 hours after almitrine infusion.
Setting [9] is: 12 hours after almitrine infusion.

With `[N]=O` [NO, Nitric Oxide], the “median PaO2/FiO2 after NO” value in series [1] is 124 mmHg.
Consider `C=CCNc1nc(NCC=C)nc(N2CCN(C(c3ccc(F)cc3)c3ccc(F)cc3)CC2)n1.CS(=O)(=O)O` [almitrine dimesylate, 6-[4-[bis(4-fluorophenyl)methyl]piperazin-1-yl]-2-N,4-N-bis(prop-2-enyl)-1,3,5-triazine-2,4-diamine methanesulfonic acid], for which, in series [2] (10 patients, 135 before almitrine, iv 4 then 12 μg/kg/min), the “median PaO2/FiO2 ratio after almitrine administration” value is on record as 215 mmHg. Also, the “increase of median PaO2/FiO2 ratio” value in series [2] (10 patients, from 135 before to 215 after almitrine) was 80 mmHg. Besides, in series [2] (setting [6]), the cardiac index result is “not affected” and the right atrial pressures result is “not affected”. Further, the “number of patients with increased PaO2/FiO2” value in series [2] (out of 10 human patients (median age 70), iv 4 μg/kg/min for 30-45 min, then 12 μg/kg/min for 30-45 min, intubated and ventilated) is reported as 8. For the same molecule, the “median PaO2/FiO2 after almitrine” value in series [3] was 117 mmHg. For the same molecule, in series [4] (setting [7]), the PaO2 is recorded as 67 mm Hg and the PaO2/FiO2 is recorded as 84 mmHg. Moreover, in series [4] (setting [8]), the PaO2 is recorded as 130 mm Hg and the PaO2/FiO2 is 216 mmHg. In addition, in series [4] (setting [9]), the PaO2 was 170 mm Hg and the PaO2/FiO2 is reported as 283 mmHg. Further, in series [5] (32 patients), the lower mortality was 16% and the side-effects result was “no significant side-effects”. The “responders (PaO2 increase of more than 20%)” value in series [5] (32 patients, NO inhaled in 75% of cases) is 66%. For the same molecule, the “mean increase in PaO2” value in series [5] (responders) is reported as 67%.
